Assay results reported in patent publication US9139548B2, “Polycyclic derivatives, preparation process and pharmaceutical use thereof” (Jiangsu Hengrui Medicine Co., Ltd., priority 2012, dated 2015).

Columns and labels:
GPR40 = molecular target: T1, GPR40 (Homo sapiens, UniProt O14842); assay: Agonist activity on CHO-K1/GPR40 cell (Fluo-4 calcium fluorescence); type: cell-based; conditions: CHO-K1 cell line expressing GPR40, calcium ion fluorescence
T1 construct: host or cells: CHO-K1 (Cell bank of the Chinese Academy of Sciences, GNHa 7), retrovirus infection
Text: Agonist activity of compounds of the present disclosure on CHO-K1/GPR40 cell.
The following method was used to determine the agonist activity of compounds of the present disclosure on GPR40. The experiment process is described as follows:
CHO-K1/GPR40 cell (CHO-K1 cell line expressing GPR40, which was constructed using retrovirus infection method, CHO-K1/GPR40 cell for short, wherein CHO-K1 cell was purchased from Cell bank of the Chinese Academy of Sciences, catalogue number GNHa 7; GPR40 cDNA was purchased from Guangzhou FulenGen Co., Ltd, catalogue number EX-UO270-MO2) was inoculated in a 96-well plate with an inoculation density of 25000 cells/well. The cell plate was incubated at 37° C. and 5% CO2 for 24 hours. The cell culture fluid was discarded during the experiment, the cells were washed with buffer solution (1×HBSS+20 mM HEPES pH 7.4) once, 100 μL of Fluo-4 calcium ion dye was quickly added into each well, incubated at 37° C. in the dark for 30 minutes, and then at room temperature for another 30 minutes. During the determination, the baseline value of each well was read at first, and then different concentrations of drug were added to the wells (50 μL/well), and the fluorescence values were then read. The fluorescence excitation wavelength was 494 nm and the emission wavelength was 516 nm. The increase of fluorescence intensity was proportional to calcium ion level in the cells. Cell response rate of each cell/(The maximum fluorescence value−The minimum fluorescence value)/The minimum fluorescence value. EC50 values of the compounds were calculated

[1] = tested on: ICR mice fed on a high fat diet; assay: Oral glucose tolerance test (OGTT) in glucose load mice fed on a high fat diet; type: in vivo; conditions: blood glucose AUC, high fat diet ICR male mice, single oral dose 40 mg/kg
Method: ICR mice fed on a high fat diet were used as test animals. The effect of oral administration of a single dose of the compounds of the present disclosure on oral glucose tolerance test (OGTT) of glucose load mice was studied.
Compounds of Example 1, Example 2, Example 13, Example 16, Example 18, Example 19 and Example 26
Healthy ICR male mice were purchased from SINO-BRITSH SIPPR/BK LAB. ANIMAL LTD., CO, License number: SCXK (Shanghai) 2008-0016
The test compounds were added to aqueous 0.5% CMC-Na solution to prepare the corresponding concentration suspension using microwave.
After an overnight fast for 16 hours, male mice fed on a high fat diet were weighed, and the basic blood glucose was determined. The mice were randomly divided into a Blank group and the group of each test compound of the present disclosure according to the level of blood glucose.
The dosage of administration was 20 mg/kg or 40 mg/kg, and the Blank group was administered aqueous 0.5 CMC-Na solution.
20% Glucose solution was administered 15 minutes after intragastrical administration (each mouse was administered 0.4 mL)
The compounds were administered according to the aforesaid dosage to determine the blood glucose value (−15 minutes).
At 15 minutes after administration, 20% glucose solution was administrated at a dose of 2 g/kg and the blood glucose values at 0, 15, 30, 45, 60 and 120 minutes in each mouse were determined by Roche Accu-Chek blood glucose monitoring meter.
Using Excel statistical software: the average value was calculated with avg; SD value was calculated with STDEV; and P value of difference among groups was calculated with TTEST. • AUC calculation formula: AUC=(t15min+t0min)×0.25/2+(t30min+t15min)×0.25/2+(t45min+t30min)×0.25/2+(t60min+t45min)×0.25/2+(t120min+t60min)×1/2 • Wherein t0min, t15min, t30min, t45min, t60min, t120min were blood glucose values determined at different time points.

[2] = Pharmacokinetics assay in rats after intragastric administration; type: in vivo; conditions: for Vd/F / AUC / CL/F / half-life / MRT / Cmax: both sexes, SD, rat, plasma, po, 5 mg/kg; for Vd/F: read-out: Apparent Distribution Volume Vz/F; for AUC: read-out: Area under Curve AUC; for CL/F: read-out: Clearance CL/F (converted); for half-life: read-out: Half-Life t½ (converted); for MRT: read-out: Mean Residence Time MRT; for Cmax: read-out: Plasma Conc. Cmax
Method: The compounds of the present invention were administered intragastrically to determine the drug concentration in plasma at different time points. The pharmacokinetic behavior of the compounds of the present invention was studied and evaluated in rats.
Compounds of Example 1, Example 2, Example 13 and Example 30
16 healthy adult SD rats were divided into 4 groups with 4 in each group, half male and half female. Rats were purchased from SINO-BRITSH SIPPR/BK LAB. ANIMAL LTD., CO, License number: SCXK (Shanghai) 2008-0016
The appropriate amount of test compounds were weighed and added to 0.5% sodium carboxymethyl cellulose to prepare a 0.5 mg/mL suspension using microwave.
After an overnight fast, the rats were administered intragastrically a dose of 5.0 mg/kg, at an administration volume of 10 mL/kg. Blood samples were taken before administration and after administration at different time points over 24.0 hours, using heparin as an anticoagulant. The separated plasma samples were stored at −20° C. The rats were fed 2 hours after administration.
Blood samples (0.1 mL) were taken before administration and at 1.0, 2.0, 3.0, 4.0, 6.0, 8.0, 11.0, 24.0 and 48.0 hours after administration, which were stored in heparinized tubes and centrifuged for 5 minutes at 3,500 rpm to separate blood plasma. The plasma samples were stored at −20° C. The rats were fed 2 hours after administration.
The content of the different test compounds in rat plasma samples after the intragastric administration was determined by LC/MS/MS method. The linearity of the method is 1.00˜2000 ng/ml. The blood sample was analyzed after protein precipitation was accomplished by the addition of methanol.

T1 sequence (O14842 whole entry): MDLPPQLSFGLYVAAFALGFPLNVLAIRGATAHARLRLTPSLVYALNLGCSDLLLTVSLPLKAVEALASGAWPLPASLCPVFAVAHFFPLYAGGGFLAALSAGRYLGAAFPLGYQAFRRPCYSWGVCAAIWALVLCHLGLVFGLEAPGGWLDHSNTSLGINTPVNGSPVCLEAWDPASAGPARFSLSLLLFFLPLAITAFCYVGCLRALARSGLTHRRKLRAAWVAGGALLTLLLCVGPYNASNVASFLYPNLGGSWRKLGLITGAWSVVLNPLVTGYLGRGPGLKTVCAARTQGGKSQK

Row | SMILES | EC50 (GPR40) [µM] | AUC decrease rate % ([1]; 40 mg/kg) [%] | Vd/F [2] [L/kg] | AUC [2] [µg·h/mL] | CL/F [2] [L/h/kg] | half-life [2] [h] | MRT [2] [h] | Cmax [2] [µg/mL] | AUC decrease rate % [1] [%] | Area under Curve AUC ([2]; SD rats, 5 mg/Kg) [µg·h/mL] | Clearance CL/F ([2]; SD rats, 5 mg/Kg) [L/h/kg] | Half-Life t½ ([2]; SD rats, 5 mg/Kg) [h] | Mean Residence Time MRT ([2]; SD rats, 5 mg/Kg) [h] | Plasma Conc. Cmax ([2]; SD rats, 5 mg/Kg) [µg/mL]
1 | Cc1cc(O[C@@H]2COC[C@H]2O)cc(C)c1-c1cccc(COc2ccc3c(c2)OC[C@H]3CC(=O)O)c1 [Example 30, 2-((S)-6-((4′-(((3R,4R)-4-hydroxytetrahydrofuran-3-yl)oxy)-2′,6′-dimethylbiphenyl-3-yl)methoxy)-2,3-dihydrobenzofuran-3-yl)acetic acid] | 0.034 | 29.59 | 1.88 ± 0.66 | 38.2 ± 15 | 0.14 | 9.35 ± 0.55 | 13.3 ± 2 | 2.73 ± 0.478 | – | – | – | – | – | –
2 | Cc1cc(O[C@H]2CCOC2)cc(C)c1-c1cccc(COc2ccc3c(c2)OC[C@H]3CC(=O)O)c1 [Example 1, 2-((S)-6-((2′,6′-Dimethyl-4′-(((S)-tetrahydrofuran-3-yl)oxy)biphenyl-3-yl)methoxy)-2,3-dihydrobenzofuran-3-yl)acetic acid] | 0.031 | – | 3.39 ± 1.24 | 21.6 ± 8.62 | 0.24 | 10.1 ± 3.3 | 14.5 ± 4.7 | 1.69 ± 0.698 | 36.08 | – | – | – | – | –
3 | Cc1cc(O[C@@H]2CCOC2)cc(C)c1-c1cccc(COc2ccc3c(c2)OC[C@H]3CC(=O)O)c1 [Example 2, 2-((S)-6-((2′,6′-Dimethyl-4′-(((R)-tetrahydrofuran-3-yl)oxy)biphenyl-3-yl)methoxy)-2,3-dihydrobenzofuran-3-yl)acetic acid] | 0.035 | – | 2.79 ± 0.79 | 32.9 ± 11.9 | 0.15 | 13.4 ± 3.8 | 18.9 ± 6 | 2.01 ± 0.511 | 29.49 | – | – | – | – | –
4 | Cc1cc(O[C@@H]2COC[C@H]2O)cc(C)c1-c1cccc(COc2ccc3c(c2)OC[C@H]3CC(=O)O)c1 (mixture of isomers) [Example 13, 2-((S)-6-((4′-(((3R,4R)/(3S,4S)-4-Hydroxytetrahydrofuran-3-yl)oxy)-2′,6′-dimethylbiphenyl-3-yl)methoxy)-2,3-dihydrobenzofuran-3-yl)acetic acid] | 0.016 | 39.71 | – | – | – | – | – | – | – | 39.357 ± 10.659 | 0.13 ± 0.03 | 10.0 ± 0.3 | 12.5 ± 1.5 | 3.153 ± 0.482
